Here are results for 16 compounds from publication PMC4096627 (Bioorganic & medicinal chemistry, 2014).

In experiment [1] the target is T1, Dopamine Receptor D4 (Homo sapiens, UniProt P21917).
T1 sequence (P21917 1-419): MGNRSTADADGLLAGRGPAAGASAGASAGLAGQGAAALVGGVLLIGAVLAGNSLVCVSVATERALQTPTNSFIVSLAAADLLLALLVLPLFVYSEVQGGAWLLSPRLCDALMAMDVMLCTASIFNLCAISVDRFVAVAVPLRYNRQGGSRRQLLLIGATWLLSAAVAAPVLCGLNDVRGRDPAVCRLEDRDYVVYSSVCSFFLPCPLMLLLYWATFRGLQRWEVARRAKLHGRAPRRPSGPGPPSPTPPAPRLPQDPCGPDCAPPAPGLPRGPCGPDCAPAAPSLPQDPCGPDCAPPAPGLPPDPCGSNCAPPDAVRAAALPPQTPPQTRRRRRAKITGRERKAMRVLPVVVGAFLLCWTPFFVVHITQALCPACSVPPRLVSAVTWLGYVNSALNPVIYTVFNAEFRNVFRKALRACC
The experiment can be described thus: NIMH-PDSP binding affinity at dopamine receptor subtype D4. Particulars: for D2/D4: ratio of Ki D2 to Ki D4.

For experiment [2], the target named is T1, Dopamine Receptor D4. Particulars: compounds 1-7, D2-like data; ref Previous publications from our lab; cited from earlier work.
In a further experiment the target is Dopamine Receptor D5 (Homo sapiens, UniProt P21918). Description: NIMH-PDSP binding affinity at dopamine receptor subtype D5. Particulars: for primary assay inhibition at D5: primary assay threshold.
The next experiment deals with Dopamine Receptor D1 (Homo sapiens, UniProt P21728). The experiment can be described thus: NIMH-PDSP binding affinity at dopamine receptor subtype D1. Particulars: for primary assay inhibition at D1: primary assay threshold.
The target of a further experiment is Dopamine Receptor D2 (Homo sapiens, UniProt P14416). Description: NIMH-PDSP binding affinity at dopamine receptor subtype D2. The following applies: for primary assay inhibition at D2: primary assay threshold.
A further experiment has as its target Dopamine Receptor D3 (Homo sapiens, UniProt P35462). The experiment can be described thus: NIMH-PDSP binding affinity at dopamine receptor subtype D3.

Structures can show the parent of a compound that is named as a salt.

Dopamine Receptor D2, sequence (P14416 whole entry): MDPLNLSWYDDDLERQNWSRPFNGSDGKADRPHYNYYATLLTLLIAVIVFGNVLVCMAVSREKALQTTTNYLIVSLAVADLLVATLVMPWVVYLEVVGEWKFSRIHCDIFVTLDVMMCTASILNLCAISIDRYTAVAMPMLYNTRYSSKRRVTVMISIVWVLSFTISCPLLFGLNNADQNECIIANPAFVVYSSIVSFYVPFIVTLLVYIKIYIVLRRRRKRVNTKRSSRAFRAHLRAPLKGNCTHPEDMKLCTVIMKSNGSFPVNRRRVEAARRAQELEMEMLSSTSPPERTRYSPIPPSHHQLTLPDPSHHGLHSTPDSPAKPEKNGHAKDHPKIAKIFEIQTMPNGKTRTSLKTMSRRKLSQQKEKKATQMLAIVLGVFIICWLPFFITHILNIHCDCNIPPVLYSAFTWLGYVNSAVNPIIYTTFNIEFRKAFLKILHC
Dopamine Receptor D1, sequence (P21728 whole entry): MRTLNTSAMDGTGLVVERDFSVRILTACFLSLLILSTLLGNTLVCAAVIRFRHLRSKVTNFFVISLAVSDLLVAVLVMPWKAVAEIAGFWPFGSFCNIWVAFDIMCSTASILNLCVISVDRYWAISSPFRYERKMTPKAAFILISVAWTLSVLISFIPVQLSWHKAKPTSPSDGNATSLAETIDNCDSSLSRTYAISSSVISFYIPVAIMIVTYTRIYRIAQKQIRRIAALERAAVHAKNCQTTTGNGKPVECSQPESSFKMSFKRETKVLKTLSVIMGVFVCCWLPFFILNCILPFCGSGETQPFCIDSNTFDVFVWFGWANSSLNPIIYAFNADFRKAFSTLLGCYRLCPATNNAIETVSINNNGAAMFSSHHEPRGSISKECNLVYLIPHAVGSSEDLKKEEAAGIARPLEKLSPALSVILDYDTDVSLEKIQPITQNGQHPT
Dopamine Receptor D5, sequence (P21918 whole entry): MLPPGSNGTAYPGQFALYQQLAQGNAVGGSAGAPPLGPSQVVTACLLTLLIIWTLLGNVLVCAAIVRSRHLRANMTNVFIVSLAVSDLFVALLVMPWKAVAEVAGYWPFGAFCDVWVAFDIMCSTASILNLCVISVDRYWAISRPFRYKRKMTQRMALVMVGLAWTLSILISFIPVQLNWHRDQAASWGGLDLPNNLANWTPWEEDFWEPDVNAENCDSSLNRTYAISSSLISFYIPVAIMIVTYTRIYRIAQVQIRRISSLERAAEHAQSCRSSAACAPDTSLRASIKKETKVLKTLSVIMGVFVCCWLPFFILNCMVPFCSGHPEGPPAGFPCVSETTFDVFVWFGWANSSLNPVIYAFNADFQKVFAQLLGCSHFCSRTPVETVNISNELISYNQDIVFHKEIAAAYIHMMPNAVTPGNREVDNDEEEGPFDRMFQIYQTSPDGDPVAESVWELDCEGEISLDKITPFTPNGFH
Dopamine Receptor D3, sequence (P35462 whole entry): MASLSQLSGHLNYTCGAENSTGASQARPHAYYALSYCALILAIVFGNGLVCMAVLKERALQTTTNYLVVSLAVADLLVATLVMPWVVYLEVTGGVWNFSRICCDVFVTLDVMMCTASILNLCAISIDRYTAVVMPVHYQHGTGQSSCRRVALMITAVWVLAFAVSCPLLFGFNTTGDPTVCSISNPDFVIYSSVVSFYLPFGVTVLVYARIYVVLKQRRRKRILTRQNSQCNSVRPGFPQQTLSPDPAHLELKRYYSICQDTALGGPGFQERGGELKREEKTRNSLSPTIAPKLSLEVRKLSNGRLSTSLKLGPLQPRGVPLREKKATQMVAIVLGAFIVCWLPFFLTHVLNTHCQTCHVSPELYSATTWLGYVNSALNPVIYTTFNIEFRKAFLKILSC

As for `O=C(CCCN1CCN(c2ccc(Cl)cc2)CC1)c1ccc(F)cc1` [Compound 1], the D2/D4 at Dopamine Receptor D4 [1] is given as 14.5. Also, the D3/D4 at Dopamine Receptor D4 [1] (ratio of Ki D3 to Ki D4) worked out at 23.1.
Take `Clc1ccc(N2CCN(CCCOc3ccccc3)CC2)cc1` [Compound 6]: the “pKi ±SEM at the Dopamine Receptor Subtype D4” value on Dopamine Receptor D4 [2] is on record as 8.26±0.03.
On to `O=C1c2ccc(F)cc2CC1CCN1CCN(c2ccc(Cl)cc2)CC1` (centres unmarked) [Compound 8, 2-(2-(4-(4-Chlorophenyl)piperazin-1-yl)ethyl)-5-fluoro-indan-1-one hydrochloride], for which the “primary assay inhibition at D5” value at Dopamine Receptor D5 was “MT (Missed primary assay threshold of 50% inhibition)”.
Regarding `Fc1ccc(OCCCN2CCN(c3ncccn3)CC2)cc1` [Compound 16a], the “primary assay inhibition at D5” value at Dopamine Receptor D5 was “MT (Missed primary assay threshold of 50% inhibition)”.
With `Clc1ccc(N2CCN(CCCCc3nc4ccccc4o3)CC2)cc1` [Compound 20, 2-(4-(4-(4-Chlorophenyl)piperazin-1-yl)butyl)benzo[d]oxazole], the “primary assay inhibition at D1” value on Dopamine Receptor D1 is on record as “MT (Missed primary assay threshold of 50% inhibition)”. At Dopamine Receptor D2, the “primary assay inhibition at D2” value is on record as “MT (Missed primary assay threshold of 50% inhibition)”. Moreover, at Dopamine Receptor D5, the “primary assay inhibition at D5” value is reported as “MT (Missed primary assay threshold of 50% inhibition)”. Also, at Dopamine Receptor D4 [1], the D2/D4 was greater than 327.
Consider `Cc1ccc(N2CCN(CCCSc3ccc(F)cc3)CC2)nc1` [Compound 15b, 1-(3-((4-Fluorophenyl)thio)propyl)-4-(5-methylpyridin-2-yl)piperazine], for which the “pKi ±SEM at the Dopamine Receptor Subtype D3” value at Dopamine Receptor D3 stood at 6.8±0.1. The “pKi ±SEM at the Dopamine Receptor Subtype D2” value at Dopamine Receptor D2 is recorded as 6±0.1. For the same compound, the “pKi ±SEM at the Dopamine Receptor Subtype D5” value at Dopamine Receptor D5 turned out to be 5.7±0.1.
On to `Clc1ccc(N2CCN(CCCc3cc4ccccc4o3)CC2)cc1` [Compound 24, 1-(3-(Benzofuran-2-yl)propyl)-4-(4-chlorophenyl)piperazine], for which, at Dopamine Receptor D5, the “primary assay inhibition at D5” value is “MT (Missed primary assay threshold of 50% inhibition)”.
`c1cnc(N2CCN(CCCc3nc4ccccc4s3)CC2)nc1` [Compound 28, 2-(3-(4-(Pyrimidin-2-yl)piperazin-1-yl)propyl)benzo[d]thiazole trihydrobromide]: at Dopamine Receptor D1 (other DA subtypes), the “inhibition of the appropriate radioligand at D1” value is recorded as “less than 50%”. At Dopamine Receptor D1, the “primary assay inhibition at D1” value is given as “MT (Missed primary assay threshold of 50% inhibition)”. Besides, at Dopamine Receptor D5 (other DA subtypes), the “inhibition of the appropriate radioligand at D5” value is on record as “less than 50%”. Moreover, the “primary assay inhibition at D5” value on Dopamine Receptor D5 is “MT (Missed primary assay threshold of 50% inhibition)”.
With `Clc1ccc(N2CCN(CCc3nc4ccccc4o3)CC2)cc1` [Compound 22, 2-(2-(4-(4-Chlorophenyl)piperazin-1-yl)ethyl)benzo[d]oxazole], the “primary assay inhibition at D1” value at Dopamine Receptor D1 was “MT (Missed primary assay threshold of 50% inhibition)”. For the same compound, the “primary assay inhibition at D2” value on Dopamine Receptor D2 is “MT (Missed primary assay threshold of 50% inhibition)”. Further, the “primary assay inhibition at D5” value on Dopamine Receptor D5 is recorded as “MT (Missed primary assay threshold of 50% inhibition)”. Further, the D2/D4 at Dopamine Receptor D4 [1] is recorded as greater than 7.1.
On to `Clc1ccc(N2CCN(CCc3cc4ccccc4o3)CC2)cc1` [Compound 23, 1-(2-(Benzofuran-2-yl)ethyl)-4-(4-chlorophenyl)piperazine], for which the “primary assay inhibition at D3” value at Dopamine Receptor D3 (primary assay threshold) is reported as “MT (Missed primary assay threshold of 50% inhibition)”. Besides, on Dopamine Receptor D1, the “primary assay inhibition at D1” value is given as “MT (Missed primary assay threshold of 50% inhibition)”. The “primary assay inhibition at D2” value at Dopamine Receptor D2 is recorded as “MT (Missed primary assay threshold of 50% inhibition)”. At Dopamine Receptor D5, the “primary assay inhibition at D5” value is on record as “MT (Missed primary assay threshold of 50% inhibition)”.
For `O=C1c2ccccc2CC1CCN1CCN(c2ccc(Cl)cc2)CC1` (centres unmarked) [Compound 9, 2-{2-[4-(4-Chloro-phenyl)-piperazin-1-yl]-ethyl}-indan-1-one tosylate], at Dopamine Receptor D5, the “primary assay inhibition at D5” value is “MT (Missed primary assay threshold of 50% inhibition)”. In addition, the D2/D4 at Dopamine Receptor D4 [1] is reported as greater than 277.
On to `[O-][S+](CCCN1CCN(c2ccc(Cl)cc2)CC1)c1ccc(F)cc1` (centres unmarked) [Compound 2], for which the “pKi ±SEM at the Dopamine Receptor Subtype D4” value on Dopamine Receptor D4 [2] was 7.89±0.05. Further, on Dopamine Receptor D1, the “primary assay inhibition at D1” value was “MT (Missed primary assay threshold of 50% inhibition)”. Also, on Dopamine Receptor D5, the “primary assay inhibition at D5” value is on record as “MT (Missed primary assay threshold of 50% inhibition)”.
As for `c1cnc(N2CCN(CCCCc3nc4ccccc4s3)CC2)nc1` [Compound 27], the “primary assay inhibition at D1” value at Dopamine Receptor D1 is recorded as “MT (Missed primary assay threshold of 50% inhibition)”. The “primary assay inhibition at D5” value on Dopamine Receptor D5 is given as “MT (Missed primary assay threshold of 50% inhibition)”.
As to `Fc1ccc2c(c1)CC(CCN1CCN(c3ccc(Cl)cc3)CC1)C2` (centres unmarked) [Compound 10, 1-(4-Chlorophenyl)-4-(2-(5-fluoro-2,3-dihydro-1H-inden-2-yl)ethyl)piperazine dihydrochloride], the “primary assay inhibition at D5” value on Dopamine Receptor D5 is “MT (Missed primary assay threshold of 50% inhibition)”.
By Ki is commonly meant the dissociation constant of the complex between target and ligand, obtained from inhibition or displacement. `Cc1ccc(N2CCN(CCCOc3ccc(F)cc3)CC2)nc1` [Compound 15a, 1-(3-(4-Fluorophenoxy)propyl)-4-(5-methylpyridin-2-yl)piperazine] showed a Ki at Dopamine Receptor D4 [1] (pKi ±SEM at the Dopamine Receptor Subtype D4) of 1.1 nM.
As to `Clc1ccc(N2CC3CC2CN3CCCc2cc3ccccc3o2)cc1` (centres unmarked) [Compound 25, 2-(3-(Benzofuran-2-yl)propyl)-5-(4-chlorophenyl)-2,5-diazabicyclo[2.2.1]heptane], the “primary assay inhibition at D1” value on Dopamine Receptor D1 is “MT (Missed primary assay threshold of 50% inhibition)”. The “primary assay inhibition at D2” value on Dopamine Receptor D2 is on record as “MT (Missed primary assay threshold of 50% inhibition)”. Moreover, the “primary assay inhibition at D5” value on Dopamine Receptor D5 was “MT (Missed primary assay threshold of 50% inhibition)”. Further, the D2/D4 on Dopamine Receptor D4 [1] is listed as >4.2-.
